Laboratory results published in ChEMBL document CHEMBL3879907, “8-azabicyclo[3.2.1]octane compounds as mu opioid receptor antagonists” (2014).

Key:
[1] = biological target: Delta-type opioid receptor (Homo sapiens, UniProt P41143); test: Displacement of [3H]-diprenorphine from human delta opioid receptor expressed in cell membranes
[2] = biological target: Mu-type opioid receptor (Homo sapiens) (UniProt P35372); test: Intrinsic activity at human mu opioid receptor expressed in CHOK1 cell membranes at 0.00001 to 20 uM after 30 mins by GTP-Eu nucleotide exchange assay relative to DAMGO; assay type: functional; conditions: CHO-K1
Mu-type opioid receptor (Homo sapiens), sequence (P35372 whole entry): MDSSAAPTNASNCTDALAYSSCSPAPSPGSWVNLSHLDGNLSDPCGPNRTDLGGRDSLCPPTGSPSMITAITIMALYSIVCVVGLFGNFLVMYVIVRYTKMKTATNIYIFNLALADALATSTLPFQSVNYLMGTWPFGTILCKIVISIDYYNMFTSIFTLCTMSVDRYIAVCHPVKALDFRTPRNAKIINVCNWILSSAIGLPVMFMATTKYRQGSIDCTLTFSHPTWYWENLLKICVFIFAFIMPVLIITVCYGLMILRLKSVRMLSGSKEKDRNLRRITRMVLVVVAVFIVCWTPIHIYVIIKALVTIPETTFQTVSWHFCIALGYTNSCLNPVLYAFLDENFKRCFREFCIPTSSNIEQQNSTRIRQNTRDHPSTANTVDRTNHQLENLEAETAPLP

[3] = biological target: Kappa-type opioid receptor (Cavia porcellus, UniProt P41144); test: Displacement of [3H]-diprenorphine from guinea pig kappa opioid receptor expressed in CHOK1 cell membranes; conditions: cho-k1
Kappa-type opioid receptor, sequence (P41144 whole entry): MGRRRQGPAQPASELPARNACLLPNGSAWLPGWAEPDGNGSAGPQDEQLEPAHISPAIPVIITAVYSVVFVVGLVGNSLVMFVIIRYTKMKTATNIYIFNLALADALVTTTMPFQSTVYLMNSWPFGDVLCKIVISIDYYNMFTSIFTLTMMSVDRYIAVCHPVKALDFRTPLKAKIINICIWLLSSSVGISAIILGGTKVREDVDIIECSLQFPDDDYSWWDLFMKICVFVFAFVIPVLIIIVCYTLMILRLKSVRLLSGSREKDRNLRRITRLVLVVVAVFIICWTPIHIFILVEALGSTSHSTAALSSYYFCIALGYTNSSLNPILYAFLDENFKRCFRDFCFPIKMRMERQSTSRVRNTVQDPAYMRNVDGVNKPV

Delta-type opioid receptor, sequence (P41143 whole entry): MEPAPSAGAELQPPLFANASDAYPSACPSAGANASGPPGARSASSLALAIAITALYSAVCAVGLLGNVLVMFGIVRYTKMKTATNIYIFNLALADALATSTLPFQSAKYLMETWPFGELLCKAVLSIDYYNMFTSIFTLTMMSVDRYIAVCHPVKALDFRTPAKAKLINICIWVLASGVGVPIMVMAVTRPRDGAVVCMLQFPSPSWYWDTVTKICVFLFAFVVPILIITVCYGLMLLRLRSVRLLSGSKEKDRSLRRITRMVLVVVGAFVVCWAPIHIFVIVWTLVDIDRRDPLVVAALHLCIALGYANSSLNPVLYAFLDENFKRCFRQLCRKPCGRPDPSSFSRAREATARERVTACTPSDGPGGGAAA

Compound | pKi [1] | Intrinsic activity [2] [%] | pKi [3]
O=C(C1CCCC1)N(CCN1[C@@H]2CC[C@H]1C[C@@H](c1cccc(O)c1)C2)CC1CCCCC1 | 7 to 10.5 | < 40 | 7 to 10.5
O=C(O)CC(=O)N(CCN1[C@@H]2CC[C@H]1C[C@@H](c1cccc(O)c1)C2)CC1CCCCC1 | 7 to 10.5 | < 40 | 7 to 10.5
O=C(O)CC(=O)N(CCN1[C@@H]2CC[C@H]1C[C@@H](c1cccc(O)c1)C2)Cc1c(F)cccc1F | 7 to 10.5 | < 40 | 7 to 10.5
CN(C)S(=O)(=O)N(CCN1[C@@H]2CC[C@H]1C[C@@H](c1cccc(C(N)=O)c1)C2)Cc1ccc(C(F)(F)F)cc1.O=C(O)C(F)(F)F | 7 to 10.5 | < 40 | 7 to 10.5
N#CCC(=O)N(CCN1[C@@H]2CC[C@H]1C[C@@H](c1cccc(C(N)=O)c1)C2)Cc1ccccc1.O=C(O)C(F)(F)F | 7 to 10.5 | < 40 | 7 to 10.5
NC(=O)c1cccc([C@H]2C[C@H]3CC[C@@H](C2)N3CCN(CC2CCC(F)(F)CC2)C(=O)[C@H](O)CO)c1.O=C(O)C(F)(F)F | 7 to 10.5 | < 40 | 7 to 10.5
NC(=O)c1cccc([C@H]2C[C@H]3CC[C@@H](C2)N3CCCN(Cc2ccccc2)C(=O)CO)c1 | 7 to 10.5 | < 40 | 7 to 10.5
CC(CO)(CO)C(=O)N(CCN1[C@@H]2CC[C@H]1C[C@@H](c1cccc(C(N)=O)c1)C2)CC1CCCC1.O=C(O)C(F)(F)F | 7 to 10.5 | < 40 | 7 to 10.5
NC(=O)c1cccc([C@H]2C[C@H]3CC[C@@H](C2)N3CCN(Cc2ccccc2)C(=O)C2(O)CC2)c1.O=C(O)C(F)(F)F | 7 to 10.5 | < 40 | 7 to 10.5
O=C(O)CC1(CC(=O)N(CCN2[C@@H]3CC[C@H]2C[C@@H](c2cccc(O)c2)C3)CC2CCCCC2)CCCC1 | 7 to 10.5 | < 40 | 7 to 10.5
CN(C)S(=O)(=O)N(CCN1[C@@H]2CC[C@H]1C[C@@H](c1cccc(C(N)=O)c1)C2)Cc1c(F)cccc1F.O=C(O)C(F)(F)F | 7 to 10.5 | < 40 | 7 to 10.5
NC(=O)c1cccc([C@H]2C[C@H]3CC[C@@H](C2)N3CCN(CC2CCCC2)C(=O)[C@H]2CC[C@H](O)CC2)c1.O=C(O)C(F)(F)F | 7 to 10.5 | < 40 | 7 to 10.5
O=C(C1CCCCC1)N(CCN1[C@@H]2CC[C@H]1C[C@@H](c1cccc(O)c1)C2)CC1CCCCC1 | 7 to 10.5 | < 40 | 7 to 10.5
CC(C)(O)C(=O)N(CCN1[C@@H]2CC[C@H]1C[C@@H](c1cccc(C(N)=O)c1)C2)Cc1ccccc1.O=C(O)C(F)(F)F | 7 to 10.5 | < 40 | 7 to 10.5
CS(=O)(=O)N(CCN1[C@@H]2CC[C@H]1C[C@@H](c1cccc(C(N)=O)c1)C2)Cc1c(F)cccc1F.O=C(O)C(F)(F)F | 7 to 10.5 | < 40 | 7 to 10.5
O=C(O)CCC(=O)N(CCN1[C@@H]2CC[C@H]1C[C@@H](c1cccc(O)c1)C2)Cc1c(F)cccc1F | 7 to 10.5 | < 40 | 7 to 10.5
NC(=O)c1cccc([C@H]2C[C@H]3CC[C@@H](C2)N3CCN(CC2CCCCC2)C(=O)[C@@H](O)CCO)c1.O=C(O)C(F)(F)F | 7 to 10.5 | < 40 | 7 to 10.5
CC(CO)(CO)C(=O)N(CCN1[C@@H]2CC[C@H]1C[C@@H](c1cccc(C(N)=O)c1)C2)CC1CCC1.O=C(O)C(F)(F)F | 7 to 10.5 | < 40 | 7 to 10.5
CN(C)[C@@H](Cc1ccccc1)C(=O)N(CCN1[C@@H]2CC[C@H]1C[C@@H](c1cccc(C(N)=O)c1)C2)CC1CCCCC1 | 7 to 10.5 | < 40 | 7 to 10.5
O=C([C@@H](O)Cc1ccccc1)N(CCN1[C@@H]2CC[C@H]1C[C@@H](c1cccc(O)c1)C2)CC1CCCCC1 | 7 to 10.5 | < 40 | 7 to 10.5
CC(C)C[C@H](O)C(=O)N(CCN1[C@@H]2CC[C@H]1C[C@@H](c1cccc(O)c1)C2)CC1CCCCC1 | 7 to 10.5 | < 40 | 7 to 10.5
CC(C)(CC(=O)O)CC(=O)N(CCN1[C@@H]2CC[C@H]1C[C@@H](c1cccc(O)c1)C2)CC1CCCCC1 | 7 to 10.5 | < 40 | 7 to 10.5
NC(=O)c1cccc([C@H]2C[C@H]3CC[C@@H](C2)N3CCN(Cc2c(F)cccc2F)C(=O)[C@H](O)CO)c1.O=C(O)C(F)(F)F | 7 to 10.5 | < 40 | 7 to 10.5
O=C(O)CCC(=O)N(CCN1[C@@H]2CC[C@H]1C[C@@H](c1cccc(O)c1)C2)CC1CCCCC1 (single isomer, unassigned) | 7 to 10.5 | < 40 | 7 to 10.5
NCC(=O)N(CCN1[C@@H]2CC[C@H]1C[C@@H](c1cccc(C(N)=O)c1)C2)CC1CCCCC1 | 7 to 10.5 | < 40 | 7 to 10.5

Compound | pKi [1] | Intrinsic activity [2] [%] | pKi [3]
O=C(CO)N(CCN1[C@@H]2CC[C@H]1C[C@@H](c1cccc(O)c1)C2)CC1CCCCC1 | 7 to 10.5 | < 40 | 7 to 10.5
COC(=O)CCC(=O)N(CCN1[C@@H]2CC[C@H]1C[C@@H](c1cccc(C(N)=O)c1)C2)CC1CCCCC1 | 7 to 10.5 | < 40 | 7 to 10.5
C[C@H](CN1[C@@H]2CC[C@H]1C[C@@H](c1cccc(O)c1)C2)N(Cc1ccccc1)C(=O)C1CC1 | 7 to 10.5 | < 40 | 7 to 10.5
COCC(=O)N(CCN1[C@@H]2CC[C@H]1C[C@@H](c1cccc(C(N)=O)c1)C2)Cc1c(F)cccc1F.O=C(O)C(F)(F)F | 7 to 10.5 | < 40 | 7 to 10.5
NC(=O)c1cccc([C@H]2C[C@H]3CC[C@@H](C2)N3CCN(CCc2ccccc2)C(=O)[C@@H](O)CO)c1.O=C(O)C(F)(F)F | 7 to 10.5 | < 40 | 7 to 10.5
CC1(C)C(CN(CCN2[C@@H]3CC[C@H]2C[C@@H](c2cccc(C(N)=O)c2)C3)C(=O)CO)C1(C)C | 7 to 10.5 | < 40 | 7 to 10.5
CS(=O)(=O)CC(=O)N(CCN1[C@@H]2CC[C@H]1C[C@@H](c1cccc(C(N)=O)c1)C2)CC1CCCCC1 | 7 to 10.5 | < 40 | 7 to 10.5
NC(=O)c1cccc([C@H]2C[C@H]3CC[C@@H](C2)N3CCN(CC2CCCCC2)C(=O)C[C@H](O)CO)c1.O=C(O)C(F)(F)F | 7 to 10.5 | < 40 | 7 to 10.5
NC(=O)c1cccc([C@H]2C[C@H]3CC[C@@H](C2)N3CCN(CC2CCCCC2)C(=O)Cc2ccccc2)c1 | 7 to 10.5 | < 40 | 7 to 10.5
C[C@H](CN1[C@@H]2CC[C@H]1C[C@@H](c1cccc(O)c1)C2)N(Cc1ccccc1)C(=O)CC1CCCC1 | 7 to 10.5 | < 40 | 7 to 10.5
CS(=O)(=O)CC(=O)N(CCc1ccc(O)cc1)CCN1[C@@H]2CC[C@H]1C[C@@H](c1cccc(C(N)=O)c1)C2.O=C(O)C(F)(F)F | 7 to 10.5 | < 40 | 7 to 10.5
N#CCC(=O)N(CCN1[C@@H]2CC[C@H]1C[C@@H](c1cccc(C(N)=O)c1)C2)Cc1c(F)cccc1F.O=C(O)C(F)(F)F | 7 to 10.5 | < 40 | 7 to 10.5
NC(=O)c1cccc([C@H]2C[C@H]3CC[C@@H](C2)N3CCN(CCc2ccc(O)cc2)C(=O)CO)c1.O=C(O)C(F)(F)F | 7 to 10.5 | < 40 | 7 to 10.5
CS(=O)(=O)CC(=O)N(CCN1[C@@H]2CC[C@H]1C[C@@H](c1cccc(C(N)=O)c1)C2)Cc1cccc(F)c1.O=C(O)C(F)(F)F | 7 to 10.5 | < 40 | 7 to 10.5
NC(=O)c1cccc([C@H]2C[C@H]3CC[C@@H](C2)N3CCN(CC2CCCCC2)C(=O)[C@@H](O)Cc2ccccc2)c1 | 7 to 10.5 | < 40 | 7 to 10.5
O=C(Nc1ccc2c(c1)OCO2)N(CCN1[C@@H]2CC[C@H]1C[C@@H](c1cccc(O)c1)C2)CC1CCCCC1 | 7 to 10.5 | < 40 | 7 to 10.5
NC(=O)c1cccc([C@H]2C[C@H]3CC[C@@H](C2)N3CCN(Cc2c(F)cccc2F)C(=O)C2(O)CC2)c1.O=C(O)C(F)(F)F | 7 to 10.5 | < 40 | 7 to 10.5
NC(=O)c1cccc([C@H]2C[C@H]3CC[C@@H](C2)N3CCN(CC2CCCC2)C(=O)[C@H](O)CO)c1.O=C(O)C(F)(F)F | 7 to 10.5 | < 40 | 7 to 10.5
NC(=O)c1cccc([C@H]2C[C@H]3CC[C@@H](C2)N3CCN(Cc2ccc(F)cc2)C(=O)CO)c1.O=C(O)C(F)(F)F | 7 to 10.5 | < 40 | 7 to 10.5
NC(=O)c1cccc([C@H]2C[C@H]3CC[C@@H](C2)N3CCN(CC2CCC2)C(=O)CO)c1.O=C(O)C(F)(F)F | 7 to 10.5 | < 40 | 7 to 10.5
CC(=O)N(CCN1[C@@H]2CC[C@H]1C[C@@H](c1cccc(O)c1)C2)Cc1c(F)cccc1F | 7 to 10.5 | < 40 | 7 to 10.5
NC(=O)c1cccc([C@H]2C[C@H]3CC[C@@H](C2)N3CCN(Cc2c(F)cccc2F)C(=O)[C@@H](O)Cc2ccccc2)c1.O=C(O)C(F)(F)F | 7 to 10.5 | < 40 | 7 to 10.5
CC(=O)N(CCN1[C@@H]2CC[C@H]1C[C@@H](c1cccc(O)c1)C2)CC1CCCCC1 | 7 to 10.5 | < 40 | 7 to 10.5
CC(C)(CO)C(=O)N(CCN1[C@@H]2CC[C@H]1C[C@@H](c1cccc(C(N)=O)c1)C2)Cc1c(F)cccc1F.O=C(O)C(F)(F)F | 7 to 10.5 | < 40 | 7 to 10.5
CS(=O)(=O)CC(=O)N(CCN1[C@@H]2CC[C@H]1C[C@@H](c1cccc(C(N)=O)c1)C2)Cc1ccc(C(F)(F)F)cc1.O=C(O)C(F)(F)F | 7 to 10.5 | < 40 | 7 to 10.5
